From article PMC11855827, “High-Throughput Screening of Five Compound Libraries for Anthelmintic Activity and Toxicity Leads to the Discovery of Two Flavonoid Compounds” (International Journal of Molecular Sciences, 2025)
Like-named read-outs stand apart in the source and are kept apart here.

Tested on: C. elegans
Assay: microbe, parasite or virus in culture
Conditions: Caenorhabditis elegans
[1] = 0 h, read-out: Percentage of motility inhibition 0 h, Table S2, C. elegans SS assay, 110 μM, 0 h, averages of 4 data points
[2] = 24 h, read-out: Percentage of motility inhibition 24 h, Table S2, C. elegans SS assay, 110 μM, 24 h, averages of 4 data points
[3] = 0 h, read-out: Percentage of motility inhibition 0 h
[4] = 24 h, read-out: Percentage of motility inhibition 24 h

CC[C@@H]1CN2CC[C@]3(C(=O)Nc4ccccc43)[C@@H]2C[C@@H]1/C(=C\OC)C(=O)OC [Corynoxine B] showed an inhibition at 110 µM [1] of 5% and an inhibition at 110 µM [2] of 20%.
CC[C@@H]1CN2CC[C@@]3(C(=O)Nc4ccccc43)[C@@H]2C[C@@H]1/C(=C\OC)C(=O)OC [Corynoxine] gave an inhibition at 110 µM [1] of 3% and an inhibition at 110 µM [2] of 3%.
Molecule C=C1C(=O)O[C@@H]2/C=C(\C)CC/C=C(\C)CC[C@@H]12 [Costunolide] has an inhibition at 110 µM [1] of 0% and an inhibition at 110 µM [2] of 21%.
Work on CN1C(=O)CC[C@H]1c1cccnc1 [Cotinine] yielded an inhibition at 110 µM [1] of 45% and an inhibition at 110 µM [2] of 16%.
Molecule O=c1ccc2ccccc2o1 [Coumarin] has an inhibition at 110 µM [1] of 12% and an inhibition at 110 µM [2] of 8%.
Work on CCN1C[C@]2(COC)CC[C@H](OC)[C@]34C1[C@H]([C@H](OC)[C@H]23)[C@@]1(OC(C)=O)C[C@H](OC)[C@@]2(O)C[C@@H]4[C@@H]1[C@H]2OC(=O)c1ccc(OC)cc1 [Crassicauline A] yielded an inhibition at 110 µM [1] of 0% and an inhibition at 110 µM [2] of 0%.
With CN(CC(=O)O)C(=N)N [Creatine] the inhibition at 110 µM [1] was 4% and the inhibition at 110 µM [2] was 9%.
In the case of COc1ccc2c(c1OC)CC1c3c(cc4c(c3-2)OCO4)CCN1C (stereo not drawn) [Crebanine], the inhibition at 110 µM [1] is reported as 0% and the inhibition at 110 µM [2] is reported as 4%.
For CC(C)(O)/C=C/C(=O)[C@](C)(O)[C@H]1[C@H](O)C[C@@]2(C)[C@@H]3CC=C4[C@@H](C[C@H](O)C(=O)C4(C)C)[C@]3(C)C(=O)C[C@]12C [Cucurbitacin D], the inhibition at 110 µM [1] was 10% and the inhibition at 110 µM [2] was 22%.
CC(=O)OC(C)(C)/C=C/C(=O)[C@](C)(O)[C@H]1[C@H](O)C[C@@]2(C)[C@@H]3CC=C4[C@@H](C=C(O)C(=O)C4(C)C)[C@]3(C)C(=O)C[C@]12C [Cucurbitacin E] gave an inhibition at 110 µM [1] of 0% and an inhibition at 110 µM [2] of 11%.
CC(C)(O)/C=C/C(=O)[C@](C)(O)[C@H]1[C@H](O)C[C@@]2(C)[C@@H]3CC=C4[C@@H](C=C(O)C(=O)C4(C)C)[C@]3(C)C(=O)C[C@]12C [Cucurbitacin I] gave an inhibition at 110 µM [1] of 0% and an inhibition at 110 µM [2] of 23%.
CC1=C[C@]2(O)O[C@@]3(CC2=C(C)C)[C@@H](C)CC[C@@H]13 [Curcumenol] showed an inhibition at 110 µM [1] of 0% and an inhibition at 110 µM [2] of 38%.
For C=CC1(C)Cc2occ(C)c2C(=O)C1C(=C)C (stereo not drawn) [Curzerenone], the inhibition at 110 µM [1] was 10% and the inhibition at 110 µM [2] was 9%.
Molecule COc1cc(/C=C/C(=O)O[C@H]2CC[C@]34C[C@]35CC[C@]3(C)[C@@H]([C@H](C)CCC=C(C)C)CC[C@@]3(C)[C@@H]5CC[C@H]4C2(C)C)ccc1O [Cycloartenyl ferulate] has an inhibition at 110 µM [1] of 35% and an inhibition at 110 µM [2] of 21%.
C[C@@H]1C[C@@H]([C@H](O)CC2CC(=O)NC(=O)C2)C(=O)[C@@H](C)C1 [Cycloheximide] showed an inhibition at 110 µM [1] of 17% and an inhibition at 110 µM [2] of 0%.
CC1=C2C[C@H]3[C@@H](CC=C4C[C@@H](O)CC[C@@]43C)[C@@H]2CC[C@]12O[C@@H]1C[C@H](C)CN[C@H]1[C@H]2C [Cyclopamine] showed an inhibition at 110 µM [3] of 0% and an inhibition at 110 µM [4] of 14%.
CC(=O)C1=C(O)[C@@H]2[C@H]3c4c[nH]c5cccc(c45)C[C@H]3C(C)(C)N2C1=O [Cyclopiazonic acid] gave an inhibition at 110 µM [1] of 6% and an inhibition at 110 µM [2] of 2%.
CC(C1CC1)C(O)(Cn1cncn1)c1ccc(Cl)cc1 (stereo not drawn) [Cyproconazole] showed an inhibition at 110 µM [1] of 42% and an inhibition at 110 µM [2] of 0%.
Nc1ccn([C@@H]2O[C@H](CO)[C@@H](O)[C@H]2O)c(=O)n1 [Cytidine] was tested, and the inhibition at 110 µM [1] was 12% and the inhibition at 110 µM [2] was 5%.
Molecule OC[C@@H](O)[C@@H](O)[C@H](O)[C@H](O)CO [D-Mannitol] has an inhibition at 110 µM [1] of 11% and an inhibition at 110 µM [2] of 0%.
In the case of CC(C)(CO)[C@@H](O)C(=O)NCCC(=O)O [D-Pantothenic acid], the inhibition at 110 µM [1] is reported as 9% and the inhibition at 110 µM [2] is reported as 10%.
OC[C@@H](O)[C@@H](O)[C@H](O)[C@@H](O)CO [D-Sorbitol] was tested, and the inhibition at 110 µM [1] was 0% and the inhibition at 110 µM [2] was 7%.
For COC(=O)N[C@H](C(=O)N1CCC[C@H]1c1nc(-c2ccc(-c3ccc(-c4c[nH]c([C@@H]5CCCN5C(=O)[C@@H](NC(=O)OC)C(C)C)n4)cc3)cc2)c[nH]1)C(C)C [Daclatasvir], the inhibition at 110 µM [1] was 44% and the inhibition at 110 µM [2] was 43%.
For C=C(CCC=C(C)C)[C@H]1CC[C@]2(C)[C@@H]1[C@H](O)C[C@@H]1[C@@]3(C)C[C@@H](O)[C@H](O[C@@H]4O[C@H](CO)[C@@H](O)[C@H](O)[C@H]4O[C@@H]4O[C@H](CO)[C@@H](O)[C@H](O)[C@H]4O)C(C)(C)[C@@H]3CC[C@]12C [Damulin B], the inhibition at 110 µM [1] was 9% and the inhibition at 110 µM [2] was 16%.
Molecule CC(C)(C)OC(=O)N[C@H]1CCCCC/C=C\[C@@H]2C[C@@]2(C(=O)NS(=O)(=O)C2CC2)NC(=O)[C@@H]2C[C@@H](OC(=O)N3Cc4cccc(F)c4C3)CN2C1=O [Danoprevir] has an inhibition at 110 µM [1] of 60% and an inhibition at 110 µM [2] of 24%.
O=C1c2cccc(O)c2C(=O)c2c(O)cccc21 [Danthron] showed an inhibition at 110 µM [1] of 21% and an inhibition at 110 µM [2] of 9%.
O=c1ccc2ccc(O)c(O)c2o1 [Daphnetin] gave an inhibition at 110 µM [1] of 0% and an inhibition at 110 µM [2] of 1%.
Cc1cc(C)c(Nc2ccnc(Nc3ccc(C#N)cc3)n2)c(C)c1 [Dapivirine] gave an inhibition at 110 µM [1] of 44% and an inhibition at 110 µM [2] of 4%.
Nc1ccc(S(=O)(=O)c2ccc(N)cc2)cc1 [Dapsone] showed an inhibition at 110 µM [1] of 42% and an inhibition at 110 µM [2] of 24%.
CCCCCCCCCC(=O)N[C@@H](Cc1c[nH]c2ccccc12)C(=O)N[C@H](CC(N)=O)C(=O)N[C@@H](CC(=O)O)C(=O)N[C@@H]1C(=O)NCC(=O)N[C@@H](CCCN)C(=O)N[C@@H](CC(=O)O)C(=O)N[C@H](C)C(=O)N[C@@H](CC(=O)O)C(=O)NCC(=O)N[C@H](CO)C(=O)N[C@@H]([C@H](C)CC(=O)O)C(=O)N[C@@H](CC(=O)c2ccccc2N)C(=O)O[C@@H]1C [Daptomycin] was tested, and the inhibition at 110 µM [1] was 3% and the inhibition at 110 µM [2] was 8%.
CC(C)CN(C[C@@H](O)[C@H](Cc1ccccc1)NC(=O)O[C@H]1CO[C@H]2OCC[C@H]21)S(=O)(=O)c1ccc(N)cc1 [Darunavir] showed an inhibition at 110 µM [3] of 39% and an inhibition at 110 µM [4] of 26%.
Work on CC1(C)[C@H](O)CC[C@@]2(C)[C@@H]3CC[C@](C)([C@@H](O)CO[C@@H]4O[C@H](CO)[C@@H](O)[C@H](O)[C@H]4O)C=C3CC[C@H]12 [Darutoside] yielded an inhibition at 110 µM [1] of 2% and an inhibition at 110 µM [2] of 9%.
With COc1cc2c(cc1OC)[C@@H](Cc1ccc(Oc3cc(C[C@@H]4c5cc(OC)c(OC)cc5CCN4C)ccc3O)cc1)N(C)CC2 [Dauricine] the inhibition at 110 µM [3] was 2% and the inhibition at 110 µM [4] was 9%.
In the case of CCCCCCCCCCOc1cc2c(O)c(C(=O)OCC)cnc2cc1OCC [Decoquinate], the inhibition at 110 µM [1] is reported as 13% and the inhibition at 110 µM [2] is reported as 1%.
Molecule COc1cc2c(cc1OC)[C@@H]1C(=O)c3ccc4c(c3O[C@@H]1CO2)C=CC(C)(C)O4 [Deguelin] has an inhibition at 110 µM [1] of 0% and an inhibition at 110 µM [2] of 0%.
With CC(C)c1ccc2c(c1)CC[C@H]1[C@](C)(C(=O)O)CCC[C@]21C [Dehydroabietic acid] the inhibition at 110 µM [1] was 4% and the inhibition at 110 µM [2] was 17%.
With CC(=O)C1C(=O)C=C(C)OC1=O (stereo not drawn) [Dehydroacetic acid] the inhibition at 110 µM [1] was 45% and the inhibition at 110 µM [2] was 17%.
COc1cc2c(cc1OC)-c1c(C)c3ccc(OC)c(OC)c3c[n+]1CC2 [Dehydrocorydaline] gave an inhibition at 110 µM [1] of 4% and an inhibition at 110 µM [2] of 0%.
C=C1CC[C@H]2C(=C)CC[C@H]3C(=C)C(=O)O[C@@H]3[C@@H]12 [Dehydrocostus Lactone] gave an inhibition at 110 µM [1] of 0% and an inhibition at 110 µM [2] of 24%.
Molecule COc1cc2c3c(cc4ccccc4c3c1OC)N(C)CC2 [Dehydronuciferine] has an inhibition at 110 µM [1] of 6% and an inhibition at 110 µM [2] of 6%.
With C=C(CC[C@@H](C(=O)O)[C@H]1[C@H](O)C[C@@]2(C)C3=CC[C@H]4C(C)(C)[C@@H](O)CC[C@]4(C)C3=CC[C@]12C)C(C)C [Dehydrotumulosic acid] the inhibition at 110 µM [1] was 11% and the inhibition at 110 µM [2] was 21%.
With C[C@]1(COc2ccc(N3CCC(Oc4ccc(OC(F)(F)F)cc4)CC3)cc2)Cn2cc([N+](=O)[O-])nc2O1 [Delamanid] the inhibition at 110 µM [1] was 42% and the inhibition at 110 µM [2] was 21%.
For CCN1C[C@]2(COC)CC[C@H](O)[C@]34C1[C@@](O)([C@@H](OC)[C@H]23)[C@@]1(O)C[C@H](OC)[C@H]2C[C@@H]4[C@@H]1[C@H]2OC [Delsoline], the inhibition at 110 µM [1] was 5% and the inhibition at 110 µM [2] was 0%.
CCN1C[C@]2(C)CC[C@H](OC)[C@@]34C1[C@]1(OCO[C@@]15C[C@H](OC)[C@H]1C[C@]3(O)[C@@H]5[C@H]1OC)[C@@H](OC(C)=O)[C@H]24 [Deltaline] was tested, and the inhibition at 110 µM [1] was 0% and the inhibition at 110 µM [2] was 0%.
For C[C@H](CCC(=O)O)[C@H]1CC[C@H]2[C@@H]3CC[C@@H]4C[C@H](O)CC[C@]4(C)[C@H]3C[C@H](O)[C@]12C [Deoxycholic acid], the inhibition at 110 µM [1] was 29% and the inhibition at 110 µM [2] was 12%.
C[C@H]1O[C@@H](O[C@H]2CC[C@@]3(C)[C@H](CC[C@@H]4[C@@H]3C[C@@H](O)[C@]3(C)[C@@H](C5=CC(=O)OC5)CC[C@]43O)C2)C[C@H](O)[C@@H]1O[C@H]1C[C@H](O)[C@H](O[C@H]2C[C@H](O)[C@H](O[C@@H]3O[C@H](CO)[C@@H](O)[C@H](O)[C@H]3O)[C@@H](C)O2)[C@@H](C)O1 [Deslanoside] showed an inhibition at 110 µM [1] of 5% and an inhibition at 110 µM [2] of 5%.
CC(=O)Oc1cccc2c1C(=O)c1c(OC(C)=O)cc(C(=O)O)cc1C2=O [Diacerein] was tested, and the inhibition at 110 µM [1] was 0% and the inhibition at 110 µM [2] was 8%.
With COc1ccc(Cc2cnc(N)nc2N)cc1OC [Diaveridine] the inhibition at 110 µM [1] was 17% and the inhibition at 110 µM [2] was 32%.
Work on Oc1ccc(Cl)cc1Cc1cc(Cl)ccc1O [Dichlorophen] yielded an inhibition at 110 µM [1] of 15% and an inhibition at 110 µM [2] of 0%.
In the case of N#CC(c1ccc(Cl)cc1)c1c(Cl)cc(-n2ncc(=O)[nH]c2=O)cc1Cl (stereo not drawn) [Diclazuril], the inhibition at 110 µM [1] is reported as 28% and the inhibition at 110 µM [2] is reported as 44%.
O=c1[nH]cnc2c1ncn2[C@H]1CC[C@@H](CO)O1 [Didanosine] was tested, and the inhibition at 110 µM [1] was 22% and the inhibition at 110 µM [2] was 7%.
